{"source": "patent US8153692B2", "about": "“Oral preparation for preventing or improving skin dryness” (Kyowa Hakko Bio Co., Ltd., priority 2005, dated 2012)", "system": "HOS:HR-1 mice", "test": "Skin water content after oral ingestion of citrulline in feed (SKICON-200)", "assay_type": "in vivo", "conditions": "CE-2 feed containing 1.0% by weight of L-citrulline, measured weekly from 1 to 5 weeks, relative to CE-2 feed group", "description": "HOS:HR-1 mice (male, 5 weeks old, purchased from Charles River Co., Ltd.) were used in the test. The breeding conditions were that the room temperature was 22±2° C., the humidity was 35±15% and a feed and water were freely ingested.\nEach test group consisted of 10 mice. A commercially available powder feed CE-2 (manufactured by Clea Japan) was fed to mice of the first group, CE-2 containing 1.0% by weight of L-citrulline (manufactured by Kyowa Hakko Kogyo Co., Ltd.) was fed to mice of the second group.\nThe water content of the skin surface on the back thigh upper portion of each mouse was measured with SKICON-200 (manufactured by IBS) every one week, from a week to five weeks after the start-up of the feeding of each feed. The measurement was conducted ten times for each mouse, and an average value of each mouse was obtained. Further, an average value of each test group was calculated.\nThe relative epidermal water content was calculated according to the following formula using the average value. Relative epidermal water content (%)=(A2/A1)×100 • A1: Epidermal water content of the first group • A2: Epidermal water content of the second group", "data": [{"smiles": "NC(=O)NCCC[C@H](N)C(=O)O", "note": "[citrulline, L-citrulline]", "values": [{"measurement": "water content of the skin (relative epidermal water content)", "value": "markedly improved"}]}]}
